# Test results reported in PMC4770308, “Discovery of a Chemical Tool Inhibitor Targeting the Bromodomains of TRIM24 and BRPF” (Journal of Medicinal Chemistry, 2015).
# Legend:
# [1] = target: T1, PHD/bromodomain of TRIM24 (Homo sapiens, UniProt O15164); test: Isothermal titration calorimetry, TRIM24; details: single binding site model
# T1 construct: His6 (N, cleaved yes); SUMO-1 (N, cleaved yes); made in house; host or cells: E. coli BL21(DE3)-R3-pRARE2
# T1 sequence (O15164 825-1006): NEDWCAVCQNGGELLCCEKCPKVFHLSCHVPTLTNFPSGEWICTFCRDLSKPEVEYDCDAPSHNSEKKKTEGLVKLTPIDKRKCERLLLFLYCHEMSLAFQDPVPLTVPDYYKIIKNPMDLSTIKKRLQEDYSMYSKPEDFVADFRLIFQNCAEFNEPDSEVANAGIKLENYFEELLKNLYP
# [2] = target: T2, full length TRIM24 fused to GFP (Homo sapiens, UniProt O15164); test: FRAP assay, TRIM24; format: cell-based; details: 1 μM, compared with N980F mutant
# T2 sequence (O15164 1-1050): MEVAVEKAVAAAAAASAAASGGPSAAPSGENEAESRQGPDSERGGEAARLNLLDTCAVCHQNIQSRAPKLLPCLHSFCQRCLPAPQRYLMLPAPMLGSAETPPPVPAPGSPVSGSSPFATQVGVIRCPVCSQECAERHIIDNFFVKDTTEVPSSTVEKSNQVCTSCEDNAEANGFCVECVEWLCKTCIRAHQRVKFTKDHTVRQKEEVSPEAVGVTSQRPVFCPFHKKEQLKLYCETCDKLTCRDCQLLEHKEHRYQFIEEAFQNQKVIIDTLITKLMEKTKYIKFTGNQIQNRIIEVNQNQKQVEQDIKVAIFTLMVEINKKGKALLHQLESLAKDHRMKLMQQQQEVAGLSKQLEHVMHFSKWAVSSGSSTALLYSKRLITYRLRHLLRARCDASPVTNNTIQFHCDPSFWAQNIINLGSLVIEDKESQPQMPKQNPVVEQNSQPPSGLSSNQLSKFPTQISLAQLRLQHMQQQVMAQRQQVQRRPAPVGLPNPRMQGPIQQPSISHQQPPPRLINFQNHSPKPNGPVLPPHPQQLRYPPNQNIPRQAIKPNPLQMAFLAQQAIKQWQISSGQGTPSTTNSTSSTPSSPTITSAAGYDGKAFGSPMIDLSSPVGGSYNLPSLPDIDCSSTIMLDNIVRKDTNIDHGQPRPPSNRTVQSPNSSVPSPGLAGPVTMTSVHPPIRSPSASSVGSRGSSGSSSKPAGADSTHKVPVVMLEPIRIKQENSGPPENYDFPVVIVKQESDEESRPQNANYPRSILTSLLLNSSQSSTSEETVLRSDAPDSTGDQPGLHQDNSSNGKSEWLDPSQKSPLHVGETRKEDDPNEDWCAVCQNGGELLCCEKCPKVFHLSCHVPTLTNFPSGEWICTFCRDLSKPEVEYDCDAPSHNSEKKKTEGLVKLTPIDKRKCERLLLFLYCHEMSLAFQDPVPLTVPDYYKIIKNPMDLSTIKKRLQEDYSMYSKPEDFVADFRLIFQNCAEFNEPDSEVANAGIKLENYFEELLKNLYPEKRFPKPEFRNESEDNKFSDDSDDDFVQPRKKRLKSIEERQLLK
# [3] = system: MCF-7 breast cancer cell line; test: Cytotoxicity assay (CellTiter-Glo), MCF-7; format: cell-based; details: 72 hours, concentration range tested
# Protocol: (§1) A more comprehensive evaluation of the role of TRIM24 in cancer cell proliferation and chromatin biology would require the development of a tool compound with improved selectivity.
# (§2) Calorimetric experiments were performed on a VPqITC microqcalorimeter (MicroCalTM, LLC Northampton, MA). Protein solutions were buffer exchanged by gel filtration or dialysis into buffer (20 mM Hepes pH 7.5, 150 mM NaCl, and 0.5 mM tris (2qcarboxyethyl) phosphine (TCEP)]. All measurements were carried out at 293.15 K while stirring at 286 rpm. The micro syringe was loaded with a protein solution of 250 µM, the compound solution was prepared at 20 µM and 2mL for the cell. All injections were performed using an initial injection of 2 µl followed by 34 injections of 8 µl with a duration of 16 sec per injection and a spacing of 240 sec between injection. The data were analysed with the MicroCal ORIGIN software package employing a single binding site model. The first data point was excluded from the analysis.
# (§3) Thermodynamic parameters were calculated (∆G = ∆H q T∆S = qRTlnKB where ∆G, ∆H and ∆S are the changes in free energy, enthalpy and entropy of binding, respectively).
# (§4) Temperature shift assays have been carried out as described in Fedorov et al. 2.
# (§5) Fluorescence recovery after photobleaching (FRAP)
# (§6) The TRIM24 FRAP assay has been carried out as described in Philpott et al.3. […]
# [4] = target: T3, BRD1 (BRPF2) bromodomain (Homo sapiens, UniProt O95696); test: Isothermal titration calorimetry, BRD1; details: single binding site model
# T3 sequence (O95696 562-666 limits assumed): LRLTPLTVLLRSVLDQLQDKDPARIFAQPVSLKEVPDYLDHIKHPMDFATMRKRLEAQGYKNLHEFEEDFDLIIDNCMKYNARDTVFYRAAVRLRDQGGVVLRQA
# [5] = target: T4, BRPF1 bromodomain (BRPF1B) (Homo sapiens, UniProt P55201); test: Isothermal titration calorimetry, BRPF1; details: single binding site model
# T4 sequence (P55201 628-732 limits assumed): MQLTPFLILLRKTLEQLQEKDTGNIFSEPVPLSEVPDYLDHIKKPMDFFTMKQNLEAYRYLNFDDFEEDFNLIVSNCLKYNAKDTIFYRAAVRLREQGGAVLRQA
# [6] = system: panel of 45 human bromodomains; test: Temperature shift assay, bromodomain selectivity panel; format: binding; details: 45 bromodomains; ΔTm smaller than 1 degree not considered significant
# [7] = target: T5, triplicated BRPF1B bromodomain construct with nuclear localization signal (Homo sapiens, UniProt P55201); test: FRAP assay, BRPF1B; format: cell-based; details: with SAHA
# T5 sequence (P55201 628-732 limits assumed): T4 sequence (P55201 628-732 limits assumed)
# [8] = system: panel of diverse cancer cell lines (MCF-7, RKO, MM1S, RCH-ACH, JJN-3); test: Cytotoxicity assay (CellTiter-Glo), cancer cell line panel; format: cell-based; details: 72 hours, 5 x E-05 M to 8 x E-08 M
# Protocol: as §1, §2, §3, §4, §5, §6
# [9] = target: T6, TRIM24 bromodomain (Homo sapiens, UniProt O15164); test: AlphaScreen assay, TRIM24 bromodomain; format: binding; details: 6-methoxy (R2) analogues
# T6 sequence (O15164 899-1004 limits assumed): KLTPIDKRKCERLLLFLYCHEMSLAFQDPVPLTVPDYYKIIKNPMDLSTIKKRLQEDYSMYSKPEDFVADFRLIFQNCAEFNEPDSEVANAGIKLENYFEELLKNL
# Protocol: However, the most interesting compounds of this series (3–5) also had 3–4 μM activity against TRIM24, which prompted us to explore this scaffold for the development of TRIM24 inhibitors (Table 1).
"N (ITC stoichiometry), TRIM24 [1]","N (ITC stoichiometry), BRD1 [4]","N (ITC stoichiometry), BRPF1B [5]","fluorescent recovery time, BRPF1B FRAP (in words) [7]",activity against TRIM24 (in words) [9],Structure (SMILES),"fluorescent recovery half-time, TRIM24 FRAP (in words) [2]",sensitivity of MCF-7 (in words) [3],selectivity in temperature shift (ΔTm) panel (in words) [6],cytotoxicity in cancer cell lines (in words) [8]
0.923 ± 0.003,1.127 ± 0.02,0.996 ± 0.002,reduced recovery times,–,COc1ccc(Oc2cc3c(cc2NS(=O)(=O)c2ccc(OC)c(OC)c2)n(C)c(=O)n3C)cc1 [Compound 34],effectively reduced fluorescent recovery half-time,resistant,excellent selectivity of 34 for BRPF1B/2 and TRIM24,no significant cytotoxicity
–,–,–,–,lost activity against TRIM24,COc1cc2c(cc1NS(=O)(=O)c1ccc(Br)cc1C)n(C)c(=O)n2C [Compound 8],–,–,–,–
